The nature of the data set: Antibiotic aerosol delivery with nebulizer at distal Y position, three nebulizers. Also noted: unit not given here. The settings on record: T-BIRD, continuous. An excerpt: The inhaled mass filter 1040 allows one to do accurate measurements of what delivery amounts are actually reaching the patient 10.
In a second experiment, the arrangements of FIGS. 15A and 15B were used with a single commercially available ventilator (the T-Bird ventilator) together with three different commercially available nebulizers. The nebulizer actuation was examined in the “continuous” mode. The humidity feature for these ventilators was examined by performing the test both when the feature is active and when it is off. An expiratory line filter was also used (not shown). Clearly, the Portex nebulizer performed poorly under these conditions.

Setting [1] is: AEROGEN nebulizer, humidity OFF.
Where [2] appears, read: AEROTECH nebulizer, humidity OFF.
Setting [3] is: AEROTECH nebulizer, humidity ON.

Turning to `CN[C@H](CC(C)C)C(=O)N[C@H]1C(=O)N[C@@H](CC(N)=O)C(=O)N[C@H]2C(=O)N[C@H]3C(=O)N[C@H](C(=O)N[C@H](C(=O)O)c4cc(O)cc(O)c4-c4cc3ccc4O)[C@H](O)c3ccc(c(Cl)c3)Oc3cc2cc(c3O[C@@H]2O[C@H](CO)[C@@H](O)[C@H](O)[C@H]2O[C@H]2C[C@](C)(N)[C@H](O)[C@H](C)O2)Oc2ccc(cc2Cl)[C@H]1O` [VANCOMYCIN, vancomycin], the MMAD runs as follows: under setting [1], 2; (AEROGEN nebulizer, humidity ON) 2; under setting [2], 1.7; under setting [3], 1.1; (PORTEX nebulizer, humidity ON) 1.1.
As to gentamicin, the MMAD is, setting by setting: under setting [1], 1.1; (AEROGEN nebulizer, humidity ON) 1.2; under setting [2], 0.9; under setting [3], 1.3; (PORTEX nebulizer, humidity ON) 0.9.

The values are drawn from US7334580B2, “Methods, devices and formulations for targeted endobronchial therapy” (priority 2003, dated 2008).
